Reference: PubChem BioAssay AID1508591

conditions: rat; liver microsomes; pH 7.4; 15.0 min; 1.0 µM

Compared with `Cc1ccnc(C)c1C(=O)Nc1cccc([S+](=O)([O-])N(C)C)c1`, `CC(=O)c1c(C)[nH]c(C(=O)Nc2cccc([S+](=O)([O-])Nc3ccccc3)c2)c1C` is lower in half-life: greater than 30 min for the first, 4.2 min for the second.

First: CCc1oc2ccccc2c1C(=O)c1cc(I)c(O)c(I)c1
Second: CNc1oc(-c2cccc3ccccc23)nc1C(=O)OC
The half-life of the first is lower: 13.7 min for the first, greater than 30 min for the second.

Compared with `Cc1sc2c(c1C)C(c1ccc(Cl)cc1)=N[C@H](CC(=O)NCCCCNC(=O)COc1cccc3c1C(=O)N([C@H]1CCC(=O)NC1=O)C3=O)c1nnc(C)n1-2`, `CNC(=O)Cn1cc(-c2ccc3c(c2)C(F)CC32NC(=O)N(CC(=O)N(Cc3ccc(F)cc3)[C@@H](C)C(F)(F)F)C2=O)cn1` (stereo not given in full) is 3.8-fold higher in half-life: 4.93 min for the first, 18.9 min for the second.

Going from `NC1(c2ccccc2Cl)CCCCC1=O` (stereo not given) to `CNC1(c2ccccc2Cl)CCCCC1=O` (stereo not given), the half-life falls from 11 min to 4.44 min (2.5-fold).

`O=C(Nc1ncc(Cc2ccc(C(F)(F)F)cc2)s1)c1ncc(-c2ccccc2)[nH]1` and `CC(=O)Nc1ncc(S(=O)(=O)Nc2cnccc2C(=O)Nc2nc(-c3ccccc3)cs2)s1` cannot be ordered by half-life: greater than 30 min for the first, greater than 30 min for the second.

Going from `Fc1ccc(CN2CCNc3cc(Nc4ccccc4)ncc3C2)cc1F` to `Fc1ccc(Nc2nccc(-c3ccncc3)n2)cc1F`, the half-life rises from 2.28 min to 16 min (7-fold).

First: CCCCCn1c(=O)[nH]c2cc(C(=O)NCCCN3CCCCC3)ccc2c1=O
Second: Cc1nn(CC(=O)NCCCN2CCC(N3CCCCC3)CC2)c(=O)c2cc(-c3ccccc3)nn12
The half-life of the first is higher: greater than 30 min for the first, 13 min for the second.

First: CC(C)NC(=O)N1C[C@@H]2C[C@H](C1)c1ccc(-c3cccc(C(F)(F)F)c3)c(=O)n1C2
Second: Cc1ccnc(NC(=S)N2CCN(c3ccc(C(F)(F)F)cc3[N+](=O)[O-])CC2)c1
The half-life of the first is lower: 12.5 min for the first, greater than 30 min for the second.

Going from `CCOc1cc(-c2nccc3cc(OC)c(OC)cc23)cc(OCC)c1OCC` to `COc1ccc(-c2ccc3nc(-c4ccc(SC)cc4)oc3c2)c(OC)c1OC`, the half-life falls from 2.8 min to 1.8 min (1.6-fold).

Going from `COc1ccc(CN2C(=O)[C@@H]3C[C@@H](CN3Cc3cccs3)Oc3ccccc32)cc1` to `CNC1CCC(N(Cc2ccc(OC)c(-c3ccc(C#N)cc3)c2)C(=O)c2sc3ccccc3c2Cl)CC1` (stereo not given), the half-life rises from 1.2 min to greater than 30 min.

`COCCCOc1ccnc(CS(=O)c2nc3ccccc3[nH]2)c1C` (stereo not given) and `CNc1sc(-c2cccc3ccccc23)nc1C#N` are within 1.5-fold of each other in half-life: 8.83 min for the first, 12.9 min for the second.

`Cc1cc(C)nc(NC(=S)N2CCN(c3cc(C(F)(F)F)nc4ccccc34)CC2)c1` and `O=C(c1ccc2ccccc2c1)N1CCN(c2ccc(O)cc2)CC1` cannot be ordered by half-life: greater than 30 min for the first, greater than 30 min for the second.

Compared with `O=C(CCCN1CCC(n2c(=O)[nH]c3ccccc32)CC1)c1ccc(F)cc1`, `O=C(C1CC(=O)N(c2n[nH]c3ccccc23)C1)N1CCC(c2noc3cc(F)ccc23)CC1` (stereo not given) is 1.8-fold higher in half-life: 10.9 min for the first, 19.1 min for the second.

First: CCCc1ccc(NC(=O)c2ccc3c(c2)NC(=O)CS3)cc1
Second: CC1(C)CNc2cc(NC(=O)c3cccnc3NCc3ccncc3)ccc21
The half-life of the first is 10-fold lower: 1.5 min for the first, 15.2 min for the second.

First: Nc1c(-c2ccncc2)cc[nH]c1=O
Second: c1cc(-c2cc(-c3ccncc3)c3cncn3c2)c2[nH]ccc2c1
The half-life of the first is higher: greater than 30 min for the first, 7.16 min for the second.

Going from `O=[N+]([O-])c1ccc(CNc2ccc([S+](=O)([O-])Nc3nccs3)cc2)c(O)c1` to `COc1ccc(CNc2ccc(S(=O)(=O)Nc3nccs3)cc2)cc1O`, the half-life rises from 13 min to greater than 30 min.

`CCS(=O)(=O)N1CC(CC#N)(n2cc(-c3ncnc4[nH]ccc34)cn2)C1` and `C[C@@H]1COCCN1c1cc(C2(S(C)(=N)=O)CC2)nc(-c2ccnc3[nH]ccc23)n1` (stereo not given in full) cannot be ordered by half-life: greater than 30 min for the first, greater than 30 min for the second.

First: Cc1ccccc1C(=O)N1CCC(C(=O)N2CCC(N3Cc4ccccc4C3=O)CC2)CC1
Second: NC(=O)C1CCN(c2nc(-c3ccccc3-c3ccccc3)cs2)CC1
The half-life of the first is 4.8-fold higher: 11.8 min for the first, 2.45 min for the second.

Compared with `Cc1noc(C)c1-c1cc(-c2ccc3c(c2)C(=O)NC3)cn2cncc12`, `O=C1NCc2ccc(-c3cc4c(ccn4Cc4cccnc4)c(C4=CCOCC4)n3)cc21` is lower in half-life: greater than 30 min for the first, 19.5 min for the second.

First: CN([C@@H](Cc1ccc(O[S+](=O)([O-])c2cccc3cnccc23)cc1)C(=O)N1CCN(C(=O)OCc2ccccc2)CC1)[S+](=O)([O-])c1cccc2cnccc12
Second: CC1(C)CCC(c2ccc(Cl)cc2)=C(CN2CCN(c3ccc(C(=O)NS(=O)(=O)c4ccc(N[C@H](CCN5CCOCC5)CSc5ccccc5)c(S(=O)(=O)C(F)(F)F)c4)cc3)CC2)C1
The half-life of the first is lower: 2.7 min for the first, greater than 30 min for the second.

Going from `CCOC(=O)C1CCN(C(=O)Nc2ccc3c(c2)nc(C)n3C)CC1` to `Cc1cc(C)c(C(=O)Nc2cccc([S+](=O)([O-])N3CCCCC3)c2)[nH]1`, the half-life rises from 1 min to 3 min (3-fold).

Compared with `CCOc1ccc(CCNC(=O)c2cc3sccc3n2CCN2CCOCC2)cc1OCC`, `COc1cccc(C(=O)Nc2ccc3c(N4CCOCC4)ncnc3c2)c1` is 17-fold higher in half-life: 1.6 min for the first, 27.3 min for the second.

Going from `Cc1nc([C@](C)(O)CO)sc1-c1cnc(N)c(O[C@H](C)c2cc(F)ccc2-n2nccn2)c1` to `Cc1ccc(-c2nn(C(C)(C)C)c3ncnc(N)c23)cc1`, the half-life falls from 22.6 min to 4.87 min (4.6-fold).

First: O=C(c1ccc2ncccc2c1)N1CCc2c(nc3cc[nH]n3c2=O)C1
Second: COc1ccc2c(c1)CCc1c-2n[nH]c1C(=O)N1CCc2c(nc3cc(-c4ccccc4)[nH]n3c2=O)C1
The half-life of the first is higher: greater than 30 min for the first, 27.3 min for the second.

Compared with `COc1ccc(C[C@@H]2C(=O)N[C@H](C)C(=O)N(C)[C@@H]3C(=O)N(C)[C@@H](Cc4ccc(O)c(c4)Oc4ccc(cc4)[C@H]3O)C(=O)N[C@@H](C)C(=O)N[C@H](C)C(=O)N2C)cc1`, `COc1ccc(Nc2nnc(-c3ccc(C)c(S(=O)(=O)NCc4nc5ccccc5[nH]4)c3)c3ccccc23)cc1` is 4.8-fold lower in half-life: 27.6 min for the first, 5.72 min for the second.

Compared with `CC(C)(C)C1CCc2[nH]c3ccccc3c(=O)c2C1` (stereo not given), `CC[C@H]1CN(C)[C@H]2Cc3c([nH]c4ccccc34)C(=O)C[C@H]1[C@H]2C(=O)OC` is 1.7-fold lower in half-life: 18.7 min for the first, 11.3 min for the second.

Going from `COc1cc([C@@H](CC(=O)O)c2ccc(C)c(CN3C[C@@H](C)Oc4ccccc4S3(=O)=O)c2)cc2nnn(C)c12` to `CN(C)CCNC(=O)c1nc2nc(-c3ccccc3)c(-c3cccc(F)c3)cc2n1C`, the half-life rises from 16 min to greater than 30 min.

Compared with `COCCNCc1ccc(-c2cc3nccc(Oc4ccc(NC(=O)C5(C(=O)Nc6ccc(F)cc6)CC5)cc4F)c3s2)nc1`, `O=C(Nc1ccc(Nc2ccncc2)cc1)c1ccc(Nc2ccnc3ccc([N+](=O)[O-])cc23)cc1[N+](=O)[O-]` is higher in half-life: 14.8 min for the first, greater than 30 min for the second.

Going from `Cc1ccc(S(=O)(=O)Nc2cnccc2C(=O)Nc2nc(C3CCC3)cs2)cc1` to `Cc1ccc(-c2csc(Nc3ccc(S(=O)(=O)Nc4nccs4)cc3)n2)cc1C`, the half-life rises from 5 min to greater than 30 min.

`COc1cccc(NCCC2(c3ccccc3)CC(C)(C)OC(C)(C)C2)c1` and `COc1cccc(CNC(=O)c2ccc(N3CCCC3)c(NC(=O)Nc3ccccc3F)c2)c1` are within 1.5-fold of each other in half-life: 1.6 min for the first, 1.7 min for the second.

Going from `Fc1cc(Nc2nc(-c3ccncc3)nc3ccccc23)ccc1-n1cncn1` to `CC(C)(C)c1ccc(-c2nc(SCCCOc3ccccc3)n3[nH]c(=O)cc3n2)cc1`, the half-life rises from 13 min to greater than 30 min.

Going from `CC1CCC(NC(=O)c2ccc3c(c2)N(Cc2ccccc2F)C(=O)c2ccccc2S3)CC1` (stereo not given) to `Cn1ccc2c(C(=O)NCc3cccnc3)nc(-c3ccccc3C#N)cc21`, the half-life rises from 2.12 min to 5.52 min (2.6-fold).

Going from `NC(=O)C1CCN(c2nc(-c3ccc4c(c3)OCCO4)cs2)CC1` to `O=C(C1CCN(c2nc(-c3ccc(Br)cc3)cs2)CC1)N1CCNCC1`, the half-life rises from 3.09 min to greater than 30 min.

`Cn1ccc2c(C(=O)NCCC(N)=O)nc(-c3cccc(CO)c3)cc21` and `O=C(NCCCO)c1ccc(-c2ncc3cnc(-c4cccc(F)c4)cn23)cc1` cannot be ordered by half-life: greater than 30 min for the first, greater than 30 min for the second.

`c1ccc(-c2cn[nH]c2)cc1` and `CC(C)Oc1ccccc1C(=O)Nc1nc(-c2ccccc2)cs1` are within 1.5-fold of each other in half-life: 13.1 min for the first, 9 min for the second.

Going from `Oc1ccc(CNc2cccnc2)c2cccnc12` to `COc1cccc(CNc2ccc(S(=O)(=O)Nc3ccccn3)cc2)c1O`, the half-life rises from 3.56 min to greater than 30 min.

Going from `COc1cccc(CNc2ccc(S(=O)(=O)Nc3ccc(N4CCNCC4)nc3)cc2)c1O` to `CC(C)CS(=O)(=O)c1oc(-c2ccc(F)cc2)nc1S(=O)(=O)c1ccccc1`, the half-life falls from greater than 30 min to 1.18 min.

Compared with `O=C(C=Cc1cccnc1)NCCCCC1CCN(C(=O)c2ccccc2)CC1`, `O=C(O)c1ccccc1-c1ccc(/C=c2\sc3nc4cc(Br)cnc4n3c2=O)o1` is 1.8-fold higher in half-life: 12.2 min for the first, 22 min for the second.

Going from `COc1ccc2[nH]c(=O)c(-c3noc(-c4cccs4)n3)cc2c1` to `Cc1ccc(-c2cc3c(nn2)-c2ccccc2C3=O)cc1`, the half-life falls from 13 min to 3.4 min (3.8-fold).

`CC[C@@]1(O)C(=O)OCc2c1cc1n(c2=O)Cc2c-1nc1cc(F)c(C)c3c1c2[C@@H](N)CC3` and `COc1cc2c(Nc3ccc(Br)cc3F)ncnc2cc1OCC1CCN(C)CC1` cannot be ordered by half-life: greater than 30 min for the first, greater than 30 min for the second.

Compared with `CCN(CC)CCCCNc1ncc2cc(-c3c(Cl)cccc3Cl)c(NC(=O)NC(C)(C)C)nc2n1`, `Cc1nn(Cc2ccccc2Cl)c(C)c1CN(C)CC(O)COc1ccc(Cl)cc1` (stereo not given) is lower in half-life: greater than 30 min for the first, 2.2 min for the second.

Compared with `Brc1ccc(-c2csc(N3CCCCC3)n2)cc1`, `O=[N+]([O-])c1ccc(/C=N/n2c(CO)nc3ccccc32)s1` is 6.1-fold higher in half-life: 3.45 min for the first, 21 min for the second.

`CCOC(=O)NNc1ccc(N(CC)CC(C)O)nn1` (stereo not given) and `CCOC(=O)c1ccc(-c2ccc3ncnc(NCCc4cnc[nH]4)c3c2)o1` cannot be ordered by half-life: greater than 30 min for the first, greater than 30 min for the second.

Going from `CC1=C(C(=O)Nc2nncs2)C(c2nn(C)cc2Cl)N=C(Nc2nc3ccccc3o2)N1` (stereo not given) to `CC1=C(C(=O)Nc2nnc(-c3ccccc3)s2)C(c2nn(C)cc2Cl)N=C(Nc2nc3ccccc3o2)N1` (stereo not given), the half-life falls from greater than 30 min to 11 min.

Compared with `Cc1c(NC2=C(Cl)C(=O)N(c3ccccc3)C2=O)c(=O)n(-c2ccccc2)n1C`, `COc1ccc(NC(=O)c2[nH]c(C)c(C(C)=O)c2C)cc1[S+](=O)([O-])Nc1ccccc1C#N` is higher in half-life: 23 min for the first, greater than 30 min for the second.

Compared with `COc1cc(Cl)cn2c(-c3cccc(NC4CNC4)n3)cnc12`, `CCCc1cc(C)[nH]c(=O)c1CNC(=O)c1cc(-c2ccc(N3CCN(C(C)C)CC3)nc2)cc2c1cnn2C(C)C` is lower in half-life: greater than 30 min for the first, 25 min for the second.

`CC(C)(O)C=CC(=O)[C@](C)(O)[C@H]1[C@H](O)C[C@]2(C)[C@@H]3CC=C4[C@@H](C=C(O)C(=O)C4(C)C)[C@]3(C)C(=O)C[C@@]12C` and `C#CC1(O)CCC2C3CCC4=C/C(=N/OCC(=O)NCC(=O)NC(C(=O)O)C(C)C)CC[C@]4(C)C3CC[C@@]21C` (stereo not given in full) cannot be ordered by half-life: greater than 30 min for the first, greater than 30 min for the second.

`CC[C@H](C)[C@@H]([C@@H](CC(=O)N1CCC[C@H]1[C@H](OC)[C@@H](C)C(=O)N[C@@H](Cc1ccccc1)c1nccs1)OC)N(C)C(=O)[C@@H](NC(=O)[C@H](C(C)C)N(C)C)C(C)C` gave a half-life greater than 30 min.
